Laboratory results: US11760773B2, “Small molecule drug conjugates of gemcitabine monophosphate” (MaveriX Oncology, Inc., priority 2018, dated 2023)

Assays:
[1] = Comparative plasma PK of Compound 1 versus Int 1-4 in male CD-1 mice (study b); assay type: in vivo
Protocol: Objectives: to compare the plasma pharmacokinetics and stability of Compound 1 with its non-phosphorylated SMDC analog (Int 1-4) and in plasma following a single intravenous infusion administration of Compound 1 at 11.6 mg/kg and 23.2 mg/kg with Int 1-4 (formulation F1 & F2) at 10.0 mg/kg in male CD-1 mice
PK measurements: compare PK parameters C0, CL, Vdss, Cmax, tmax, t1/2, AUC(0-t), AUC(0-inf), MRT(0-t), MRT(0-inf) for Compound 1 and Int 1-4

[2] = Int 1-4 plasma PK in the male cynomolgus monkey (study f); assay type: in vivo
Protocol: Objectives: to compare the plasma pharmacokinetics and stability of Int 1-4 in plasma following single intravenous infusion administration of Int 1-4 at 5 mg/kg and 10 mg/kg in the male cynomolgus monkey
PK measurements: compare PK parameters C0, CL, Vdss, Cmax, tmax, t, AUC(0-t), AUC(0-inf), MRT(0-t), MRT(0-inf) for Int 1-4

[3] = Comparative PK of Int 1-4 versus gemcitabine in rat plasma (study i); assay type: in vivo, Sprague-Dawley rats; details: plasma, Sprague-Dawley rat
From the text: PK measurements: compare PK parameters C0, CL, Vdss, Cmax, tmax, t1/2, AUC(0-t), AUC(0-inf), MRT(0-t), MRT(0-inf) for Int 1-4 and gemcitabine.

[4] = Comparative plasma PK of Int 1-4 versus gemcitabine in mouse (study a); assay type: in vivo; details: CD-1 mice; for AUC0-inf/AUC0-last / AUC0-last / AUC(0-inf) / Cmax / MRT0-inf / MRT0-last / T1/2 / Tmax: plasma
[5] = Int 1-4 and gemcitabine comparative PK in male cynomolgus monkey (study g); assay type: in vivo; details: plasma, male cynomolgus monkey
Protocol: Objectives: to compare the plasma pharmacokinetics and stability of Int 1-4 versus gemcitabine in plasma following single intravenous infusion administration of Int 1-4 at 5 mg/kg and 10 mg/kg with equimolar gemcitabine at 2.65 mg/kg and 5.29 mg/kg in male cynomolgous monkeys
PK measurements: compare PK parameters C0, CL, Vdss, Cmax, tmax, t1/2, AUC(0-t), AUC(0-inf), MRT(0-t), MRT(0-inf) for Int 1-4 with gemcitabine

[6] = Compound 1 and gemcitabine plasma PK in the male cynomolgus monkey (study h); assay type: in vivo; details: plasma
Protocol: Objectives: to compare the plasma pharmacokinetics and stability of the Compound 1 with Int 1-4 and in plasma following a single intravenous infusion administration of Compound 1 at 5 mg/kg and 10 mg/kg with equimolar gemcitabine at 2.28 mg/kg in male cynomolgous monkeys.
PK measurements: compare PK parameters C0, CL, Vdss, Cmax, tmax, t1/2, AUC(0-t), AUC(0-inf), MRT(0-t), MRT(0-inf) for Compound 1 and Int 1-4 with gemcitabine.

[7] = after iv Int 1-4 10.0 mg/kg, Formulation 1
[8] = after iv Int 1-4 10.0 mg/kg, Formulation 2
[9] = after iv Int 1-4 5 mg/kg (study f)
[10] = after iv Int 1-4 10 mg/kg (study f)
[11] = after iv gemcitabine 4.47 mg/kg
[12] = after iv gemcitabine 5.29 mg/kg
[13] = after iv Int 1-4 5 mg/kg (study g)
[14] = after iv Int 1-4 10 mg/kg (study g)
[15] = after iv gemcitabine 2.65 mg/kg
[16] = after iv gemcitabine 2.28 mg/kg

With `O=c1ccn(C2OC(CO)C(O)C2(F)F)c(=O)[nH]1` (stereo not shown) [dFdU] the AUC0-last ([1]; after iv Compound 1 11.6 mg/kg) was 967 ng·h/mL, the AUC(0-inf) ([1]; after iv Compound 1 11.6 mg/kg) was 786 ng·h/mL and the Cmax ([1]; after iv Compound 1 11.6 mg/kg) was 220 ng/mL. The MRT0-inf ([1]; after iv Compound 1 11.6 mg/kg) was 3.81 h, the MRT0-last ([1]; after iv Compound 1 11.6 mg/kg) was 3.70 h and the Tmax ([1]; after iv Compound 1 11.6 mg/kg) was 3.25 h. The t1/2 ([1]; after iv Compound 1 11.6 mg/kg) was 2.38 h, the AUC0-last ([1]; after iv Compound 1 23.2 mg/kg) was 1960 ng·h/mL and the AUC(0-inf) ([1]; after iv Compound 1 23.2 mg/kg) was 1830 ng·h/mL. For the same molecule, the Cmax ([1]; after iv Compound 1 23.2 mg/kg) was 378 ng/mL, the MRT0-inf ([1]; after iv Compound 1 23.2 mg/kg) was 4.48 h and the MRT0-last ([1]; after iv Compound 1 23.2 mg/kg) was 3.65 h. It also gave a Tmax ([1]; after iv Compound 1 23.2 mg/kg) of 4.00 h, a t1/2 ([1]; after iv Compound 1 23.2 mg/kg) of 2.86 h and an AUC0-last [1, 7] of 983 ng·h/mL. It also gave an AUC(0-inf) [1, 7] of 1124 ng·h/mL, a Cmax [1, 7] of 213 ng/mL and an MRT0-inf [1, 7] of 4.67 h. It also gave an MRT0-last [1, 7] of 3.59 h, a Tmax [1, 7] of 4.00 h and a t1/2 [1, 7] of 3.06 h. For the same molecule, the AUC0-last [1, 8] was 1106 ng·h/mL, the AUC(0-inf) [1, 8] was 1625 ng·h/mL and the Cmax [1, 8] was 236 ng/mL. It also gave an MRT0-inf [1, 8] of 5.89 h, an MRT0-last [1, 8] of 3.95 h and a Tmax [1, 8] of 4.00 h. It also gave a t1/2 [1, 8] of 4.15 h, a C0 [2, 9] of 296 ng/mL and an MRT0-last [2, 9] of 30.60 h. It also gave a t1/2 [2, 9] of 0.67 h, a C0 [2, 10] of 747 ng/mL and an MRT0-last [2, 10] of 63.00 h. It also gave a t1/2 [2, 10] of 0.75 h, an AUC0-last ([3]; after iv Int 1-4 10.0 mg/kg) of 288 ng·h/mL and a Cmax ([3]; after iv Int 1-4 10.0 mg/kg) of 66.5 ng/mL. It also gave an MRT0-last ([3]; after iv Int 1-4 10.0 mg/kg) of 5.55 h, a Tmax ([3]; after iv Int 1-4 10.0 mg/kg) of 8.00 h and an AUC0-last [3, 11] of 1085 ng·h/mL. It also gave a Cmax [3, 11] of 222 ng/mL, an MRT0-last [3, 11] of 5.25 h and a Tmax [3, 11] of 8.00 h. The “plasma levels of dFdU higher than gemcitabine, based on the ratios of AUC0-last” value [4, 12] was roughly 500%, the AUC0-inf/AUC0-last ([4]; after iv Int 1-4 9.4 mg/kg) was 120% and the AUC0-last ([4]; after iv Int 1-4 9.4 mg/kg) was 1039 ng·h/mL. The AUC(0-inf) ([4]; after iv Int 1-4 9.4 mg/kg) was 1440 ng·h/mL, the Cmax ([4]; after iv Int 1-4 9.4 mg/kg) was 253 ng/mL and the MRT0-inf ([4]; after iv Int 1-4 9.4 mg/kg) was 4.65 h. It also gave an MRT0-last ([4]; after iv Int 1-4 9.4 mg/kg) of 2.73 h, a T1/2 ([4]; after iv Int 1-4 9.4 mg/kg) of 3.08 h and a Tmax ([4]; after iv Int 1-4 9.4 mg/kg) of 1.00 h. It also gave an AUC0-inf/AUC0-last [4, 12] of 111%, an AUC0-last [4, 12] of 6827 ng·h/mL and an AUC(0-inf) [4, 12] of 8187 ng·h/mL. The Cmax [4, 12] was 1600 ng/mL, the MRT0-inf [4, 12] was 3.49 h and the MRT0-last [4, 12] was 2.56 h. It also gave a T1/2 [4, 12] of 2.23 h, a Tmax [4, 12] of 0.667 h and an AUC0-last [5, 13] of 4117 ng·h/mL. For the same molecule, the AUC(0-inf) [5, 13] was 5555 ng·h/mL, the Cmax [5, 13] was 302 ng/mL and the MRT0-inf [5, 13] was 24.01 h. It also gave an MRT0-last [5, 13] of 10.31 h, a Tmax [5, 13] of 1.69 h and a t1/2 [5, 13] of 16.86 h. It also gave an AUC0-last [5, 14] of 5120 ng·h/mL, an AUC(0-inf) [5, 14] of 7903 ng·h/mL and a Cmax [5, 14] of 595 ng/mL. The MRT0-inf [5, 14] was 18.02 h, the MRT0-last [5, 14] was 8.30 h and the Tmax [5, 14] was 0.67 h. It also gave a t1/2 [5, 14] of 12.87 h, an AUC0-last [5, 15] of 7703 ng·h/mL and an AUC(0-inf) [5, 15] of 8837 ng·h/mL. For the same molecule, the Cmax [5, 15] was 1973 ng/mL, the MRT0-inf [5, 15] was 9.35 h and the MRT0-last [5, 15] was 6.41 h. For the same molecule, the Tmax [5, 15] was 0.09 h, the t1/2 [5, 15] was 5.89 h and the AUC0-last ([6]; after iv Compound 1 5 mg/kg) was 3397 ng·h/mL. The AUC(0-inf) ([6]; after iv Compound 1 5 mg/kg) was 8767 ng·h/mL, the Cmax ([6]; after iv Compound 1 5 mg/kg) was 321 ng/mL and the MRT0-inf ([6]; after iv Compound 1 5 mg/kg) was 34.42 h. The MRT0-last ([6]; after iv Compound 1 5 mg/kg) was 8.98 h, the Tmax ([6]; after iv Compound 1 5 mg/kg) was 0.39 h and the t1/2 ([6]; after iv Compound 1 5 mg/kg) was 24.00 h. The AUC0-last [6, 16] was 12467 ng·h/mL, the AUC(0-inf) [6, 16] was 17600 ng·h/mL and the Cmax [6, 16] was 2153 ng/mL. For the same molecule, the MRT0-inf [6, 16] was 18.06 h, the MRT0-last [6, 16] was 8.21 h and the Tmax [6, 16] was 0.04 h. It also gave a t1/2 [6, 16] of 12.90 h.
